Tested on: mouse inflammatory bowel disease model (DSS)
Assay: Efficacy in mouse inflammatory bowel disease model with 5-ASA control (Example 7)
Type: in vivo
Conditions: 50 mg/kg, compared with the other groups
From the text: As the symptoms of inflammatory bowel disease were aggravated, systemic inflammations may be caused through the release of inflammatory cytokines in the blood, and therefore, an effective anti-inflammatory medicine was thought to inhibit the release of inflammatory substances in the spleen, liver, kidney, or the like to prevent the inflammations, and thus this was investigated.

Nc1ccc(O)c(C(=O)O)c1 [5-ASA, 5-aminosalicylic acid]
spleen weight: spleen weight was high
